Laboratory results from the supplement of paper PMC7017272.
± gives the standard deviation of the averaged measurements.

What was measured:
Details in all cases: treatment time: 3 days
UT-SCC-24A [1] = test: relative IC50 (midpoint of the fitted curve; maximal inhibition may be below 50%); higher = less potent
Experimental: (§1)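 HNSCC cell lines (500 cells/well, 384-well) were cultured on plastic, on top of (2D) or embedded (3D) in Matrigel or human leiomyoma matrix Myogel (500 ug/mL; Myogel 3D mixed with rat collagen I). Cells were treated for 3 days with 5 ten-fold concentrations of each drug, and viability was read by CellTiter-Glo. Viability was normalised to DMSO (0% inhibition) and 100 uM benzethonium chloride (100% inhibition) controls and fitted with the FIMM DSRT pipeline to give IC50 (nM), maximal % inhibition and the drug sensitivity score (DSS). Suffixes _1/_2/_3 on drug names are replicates.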

UT-SCC-24A [2] = test: drug sensitivity score (DSS); higher = more sensitive
Experimental: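 HNSCC cell lines (500 cells/well, 384-well) were cultured on plastic, on top of (2D) or embedded (3D) in Matrigel or human leiomyoma matrix Myogel (500 ug/mL; Myogel 3D mixed with rat collagen I). Cells were treated for 3 days with 5 ten-fold concentrations of each drug, and viability was read by CellTiter-Glo. Suffixes _1/_2/_3 on drug names are replicates.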

UT-SCC-44 [3] = test: relative IC50 (midpoint of the fitted curve; maximal inhibition may be below 50%); higher = less potent
In short: (§2)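 Three growth formats were used for HPV-negative HNSCC cell lines in 384-well plates at 500 cells/well: bare plastic, wells coated with Matrigel or Myogel (500 µg/mL), and embedding in Matrigel or Myogel plus rat collagen I. Compounds were added at five 10-fold concentrations, and after 3 days CellTiter-Glo 2.0 luminescence was recorded and normalised to vehicle (0.1% DMSO) and cell-killing control wells. IC50, maximal inhibition and drug sensitivity score came from percent-inhibition dose–response fitting in the FIMM pipeline.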

UT-SCC-40 [4] = test: as above
In short: as §2

UT-SCC-42B [5] = test: as above
In short: as §2

UT-SCC-106A [6] = test: as above
In short: as §2

UT-SCC-73 [7] = test: as above
In short: as §2

UT-SCC-14 = test: drug sensitivity score (DSS); higher = more sensitive; extreme values may be limits of the assay
In short: as §2

UT-SCC-28 = test: as above
In short: as §2

UT-SCC-81 = test: as above
In short: as §2

UT-SCC-44 [8] = test: as above
In short: as §2

UT-SCC-40 [9] = test: as above
In short: as §2

UT-SCC-42B [10] = test: as above
In short: as §2

UT-SCC-8 = test: as above
In short: as §2

UT-SCC-106A [11] = test: as above
In short: as §2

UT-SCC-73 [12] = test: as above
In short: as §2

UT-SCC-24B = test: as above
In short: as §2

UT-SCC-42A = test: as above
In short: as §2

UT-SCC-24A [13] = test: maximal % inhibition of viability relative to DMSO; higher = stronger effect
Experimental: as §1

[14] = culture condition: embedded in Matrigel
[15] = culture condition: embedded in Myogel + collagen I
[16] = culture condition: on top of Matrigel
[17] = culture condition: on top of Myogel
[18] = culture condition: plastic 2D (no matrix)

For C=CC(=O)Nc1cc2c(Nc3ccc(F)c(Cl)c3)ncnc2cc1OCCCN1CCOCC1 [Canertinib], the “relative IC50” value (UT-SCC-24A [1]; [14]) was 38.1 nM, the “relative IC50” value (UT-SCC-24A [1]; [15]) was 1010 nM and the “relative IC50” value (UT-SCC-24A [1]; [16]) was 84.8 nM. For the same molecule, the “relative IC50” value (UT-SCC-24A [1]; [17]) was 1630 nM, the “relative IC50” value (UT-SCC-24A [1]; [18]) was 83.1 nM and the drug sensitivity score (UT-SCC-24A [2]; [14]) was 27.8 ± 2 DSS. It also gave a drug sensitivity score (UT-SCC-24A [2]; [15]) of 11 ± 3.6 DSS, a drug sensitivity score (UT-SCC-24A [2]; [16]) of 23.5 ± 0.87 DSS and a drug sensitivity score (UT-SCC-24A [2]; [17]) of 8.7 ± 0.2 DSS. The drug sensitivity score (UT-SCC-24A [2]; [18]) was 23.5 ± 1.5 DSS, the “relative IC50” value (UT-SCC-44 [3]; [14]) was 3360 nM and the “relative IC50” value (UT-SCC-44 [3]; [15]) was 2360 nM. For the same molecule, the “relative IC50” value (UT-SCC-44 [3]; [16]) was 1660 nM, the “relative IC50” value (UT-SCC-44 [3]; [17]) was 2050 nM and the “relative IC50” value (UT-SCC-44 [3]; [18]) was 1910 nM. The “relative IC50” value (UT-SCC-40 [4]; [14]) was 48.9 nM, the “relative IC50” value (UT-SCC-40 [4]; [15]) was 1310 nM and the “relative IC50” value (UT-SCC-40 [4]; [16]) was 65.8 nM. The “relative IC50” value (UT-SCC-40 [4]; [17]) was 1270 nM, the “relative IC50” value (UT-SCC-40 [4]; [18]) was 211 nM and the “relative IC50” value (UT-SCC-42B [5]; [14]) was 75.9 nM. The “relative IC50” value (UT-SCC-42B [5]; [16]) was 299 nM, the “relative IC50” value (UT-SCC-42B [5]; [17]) was 2470 nM and the “relative IC50” value (UT-SCC-42B [5]; [18]) was 808 nM. The “relative IC50” value (UT-SCC-106A [6]; [14]) was 319 nM, the “relative IC50” value (UT-SCC-106A [6]; [15]) was 2830 nM and the “relative IC50” value (UT-SCC-106A [6]; [16]) was 171 nM. For the same molecule, the “relative IC50” value (UT-SCC-106A [6]; [17]) was 2270 nM, the “relative IC50” value (UT-SCC-106A [6]; [18]) was 126 nM and the “relative IC50” value (UT-SCC-73 [7]; [14]) was 2120 nM. For the same molecule, the “relative IC50” value (UT-SCC-73 [7]; [15]) was 2070 nM, the “relative IC50” value (UT-SCC-73 [7]; [16]) was 1660 nM and the “relative IC50” value (UT-SCC-73 [7]; [17]) was 1750 nM. For the same molecule, the “relative IC50” value (UT-SCC-73 [7]; [18]) was 1650 nM, the drug sensitivity score (UT-SCC-14; [14]) was 27 ± 0.3 DSS and the drug sensitivity score (UT-SCC-14; [15]) was 11.2 ± 2.8 DSS. The drug sensitivity score (UT-SCC-14; [16]) was 26.6 ± 0.94 DSS, the drug sensitivity score (UT-SCC-14; [17]) was 16.5 ± 2.1 DSS and the drug sensitivity score (UT-SCC-14; [18]) was 25.6 ± 1.9 DSS. For the same molecule, the drug sensitivity score (UT-SCC-28; [14]) was 4.2 ± 0.5 DSS, the drug sensitivity score (UT-SCC-28; [15]) was 8.6 ± 0.27 DSS and the drug sensitivity score (UT-SCC-28; [16]) was 7.8 ± 0.6 DSS. The drug sensitivity score (UT-SCC-28; [18]) was 7 ± 0.56 DSS, the drug sensitivity score (UT-SCC-81; [14]) was 29.4 ± 1.3 DSS and the drug sensitivity score (UT-SCC-81; [15]) was 9.43 ± 3.1 DSS. The drug sensitivity score (UT-SCC-81; [16]) was 27.53 ± 0.12 DSS, the drug sensitivity score (UT-SCC-81; [17]) was 8.9 ± 0.27 DSS and the drug sensitivity score (UT-SCC-81; [18]) was 26.1 ± 0.51 DSS. For the same molecule, the drug sensitivity score (UT-SCC-44 [8]; [14]) was 4 ± 0.3 DSS, the drug sensitivity score (UT-SCC-44 [8]; [15]) was 6.57 ± 1.5 DSS and the drug sensitivity score (UT-SCC-44 [8]; [16]) was 8.2 ± 0.27 DSS. It also gave a drug sensitivity score (UT-SCC-44 [8]; [17]) of 7.47 ± 2.1 DSS, a drug sensitivity score (UT-SCC-44 [8]; [18]) of 7.63 ± 1.1 DSS and a drug sensitivity score (UT-SCC-40 [9]; [14]) of 27.4 ± 1.1 DSS. For the same molecule, the drug sensitivity score (UT-SCC-40 [9]; [15]) was 10.4 ± 1.9 DSS, the drug sensitivity score (UT-SCC-40 [9]; [16]) was 26.2 ± 0.62 DSS and the drug sensitivity score (UT-SCC-40 [9]; [17]) was 10 ± 1.6 DSS. It also gave a drug sensitivity score (UT-SCC-40 [9]; [18]) of 18.6 ± 0.5 DSS, a drug sensitivity score (UT-SCC-42B [10]; [14]) of 23.7 ± 2.4 DSS and a drug sensitivity score (UT-SCC-42B [10]; [16]) of 16.9 ± 2 DSS. It also gave a drug sensitivity score (UT-SCC-42B [10]; [17]) of 6.83 ± 0.35 DSS, a drug sensitivity score (UT-SCC-42B [10]; [18]) of 12 ± 1.2 DSS and a drug sensitivity score (UT-SCC-8; [14]) of 29.83 ± 0.058 DSS. The drug sensitivity score (UT-SCC-8; [15]) was 4.77 ± 0.81 DSS, the drug sensitivity score (UT-SCC-8; [16]) was 29.7 ± 0.64 DSS and the drug sensitivity score (UT-SCC-8; [17]) was 11.6 ± 2.1 DSS. It also gave a drug sensitivity score (UT-SCC-8; [18]) of 29 ± 0.85 DSS, a drug sensitivity score (UT-SCC-106A [11]; [14]) of 15.8 ± 1.5 DSS and a drug sensitivity score (UT-SCC-106A [11]; [15]) of 5.8 ± 0.1 DSS. It also gave a drug sensitivity score (UT-SCC-106A [11]; [16]) of 19.2 ± 1.5 DSS, a drug sensitivity score (UT-SCC-106A [11]; [17]) of 7.13 ± 0.71 DSS and a drug sensitivity score (UT-SCC-106A [11]; [18]) of 21 ± 0.93 DSS. The drug sensitivity score (UT-SCC-73 [12]; [14]) was 7.6 ± 1.1 DSS, the drug sensitivity score (UT-SCC-73 [12]; [15]) was 7.73 ± 2.5 DSS and the drug sensitivity score (UT-SCC-73 [12]; [16]) was 8.83 ± 0.23 DSS. It also gave a drug sensitivity score (UT-SCC-73 [12]; [17]) of 8.53 ± 0.75 DSS, a drug sensitivity score (UT-SCC-73 [12]; [18]) of 8.87 ± 0.15 DSS and a drug sensitivity score (UT-SCC-24B; [14]) of 17.8 ± 0.7 DSS. The drug sensitivity score (UT-SCC-24B; [15]) was 9.13 ± 0.25 DSS, the drug sensitivity score (UT-SCC-24B; [16]) was 18.1 ± 0.57 DSS and the drug sensitivity score (UT-SCC-24B; [17]) was 9.17 ± 0.12 DSS. It also gave a drug sensitivity score (UT-SCC-24B; [18]) of 26.2 ± 0.55 DSS, a drug sensitivity score (UT-SCC-42A; [14]) of 17.1 ± 0.32 DSS and a drug sensitivity score (UT-SCC-42A; [15]) of 7.67 ± 1.3 DSS. For the same molecule, the drug sensitivity score (UT-SCC-42A; [16]) was 18.4 ± 1.2 DSS, the drug sensitivity score (UT-SCC-42A; [17]) was 9.8 ± 0.98 DSS and the drug sensitivity score (UT-SCC-42A; [18]) was 17.9 ± 0.98 DSS. For the same molecule, the “maximal % inhibition of viability” value (UT-SCC-24A [13]; [14]) was 99.57 ± 0.38%, the “maximal % inhibition of viability” value (UT-SCC-24A [13]; [15]) was 99.17 ± 0.74% and the “maximal % inhibition of viability” value (UT-SCC-24A [13]; [16]) was 99.7 ± 0.36%. For the same molecule, the “maximal % inhibition of viability” value (UT-SCC-24A [13]; [17]) was 99 ± 0.87% and the “maximal % inhibition of viability” value (UT-SCC-24A [13]; [18]) was 99.5 ± 0.62%.
